Data as given in patent publication US9689244B2, “Process for water wetting oil-wet surfaces” (BASF SE, priority 2012, dated 2017).

Columns and labels:
Assay type in all cases: physicochemical
[1] = Interfacial tension between aqueous solution and oil phase (spinning drop tensiometer)
Description: The interfacial tension between aqueous solutions of tested compounds and an oil phase were measured with a spinning drop tensiometer (DataPhysics). As the composition of crude oils may vary decane, dodecane, and hexadecane were used as model oils in order to study the range of application of the tested compounds.

[2] = Surface tension (DuNouy ring method) and critical micelle formation concentration
Description: The surface tension was measured as a function of the concentration of the surface active components using the DuNouy ring method (according to Din 53914). The critical micelle formation concentration (cmc) was derived in the usual manner from the measurement graph.
The salts used were NaCl and CaCl2 at a weight ratio of 9:1 NaCl/CaCl2.

[3] = Modification of the wettability: contact angle of oil on oil wet polyethylene platelets; details: for Contact angle: dodecane
Description: Polyethylene platelets (3 cm×2 cm) were use as hydrophobic model surfaces for oil wet rocks. As a first step, 5 μl decane or 5 μl dodecane were applied to the polyethylene platelets. The hydrophobic liquids spread on the hydrophobic surface. The contact angle between the oil and the polyethylene surface was measured using a usual contact angle measuring device (DataPhysics) and consequently a value of 0° was obtained. The oil wet platelets were submerged into an aqueous solution of 1 g/l by weight of the compound to be tested. […] The contact angle between oil and the polyethylene surface was measured as function of time. Furthermore, it was inspected visually whether oil droplets became detached from the surface.

[4] = Cloud point of conventional surfactants in saline water; details: 1% in water having a salinity of 50.000 ppm NaCl
Description: For comparative purposes, two conventional surfactants were tested at a concentration of 1% in water having a salinity of 50.000 ppm NaCl and in the usual manner their cloud point was determined.

[5] = 25 °C, brine NaCl/CaCl2 (9:1) 10,000 ppm
[6] = 25 °C, brine NaCl/CaCl2 (9:1) 100,000 ppm
[7] = 60 °C, brine NaCl/CaCl2 (9:1) 10,000 ppm
[8] = 60 °C, brine NaCl/CaCl2 (9:1) 100,000 ppm

Row | Substance | IFT after 60 min, 1 g/l of sample in aqueous phase, decane ([1]; 25 °C, brine 10,000 ppm) | IFT after 60 min, 1 g/l of sample in aqueous phase, decane ([1]; 25 °C, brine 100,000 ppm) | IFT after 60 min, 1 g/l of sample in aqueous phase, decane ([1]; 60 °C, brine 10,000 ppm) | IFT after 60 min, 1 g/l of sample in aqueous phase, decane ([1]; 60 °C, brine 100,000 ppm) | IFT after 60 min, 1 g/l of sample in aqueous phase, docecane ([1]; 25 °C, brine 10,000 ppm) | IFT after 60 min, 1 g/l of sample in aqueous phase, docecane ([1]; 60 °C, brine 10,000 ppm) | IFT after 60 min, 1 g/l of sample in aqueous phase, hexadecane ([1]; 25 °C, brine 10,000 ppm) | IFT after 60 min, 1 g/l of sample in aqueous phase, hexadecane ([1]; 60 °C, brine 10,000 ppm) | ST At 1 g/l ([2]; 25 °C, brine 10,000 ppm) | ST At 1 g/l ([2]; 25 °C, brine 100,000 ppm) | cmc [2, 5] | cmc [2, 6] | ST At 1 g/l ([2]; 60 °C, brine 10,000 ppm) | ST At 1 g/l ([2]; 60 °C, brine 100,000 ppm) | cmc [2, 7] | cmc [2, 8] | Cloud point [4] | further results
1 | Saccharose * 40 EO diester with C12/C18 fatty acid [Compound S2] | 2.3 mN/m | 2.1 mN/m | 0.46 mN/m | 0.36 mN/m | 2.0 mN/m | 0.34 mN/m | 2.2 mN/m | 0.40 mN/m | 34.6 mN/m | 34.6 mN/m | 0.03 g/L | 0.03 g/L | 27.7 mN/m | 28.3 mN/m | 0.04 g/L | 0.02 g/L | – | –
2 | Saccharose* 20 EO monoester with C16/C18 fatty acid [Compound S1] | 3.9 mN/m | 2.4 mN/m | 0.45 mN/m | 1.2 mN/m | 2.9 mN/m | 0.19 mN/m | 4.0 mN/m | 0.55 mN/m | 33.7 mN/m | 34.5 mN/m | 0.03 g/L | 0.02 g/L | 29.6 mN/m | 29.1 mN/m | 0.03 g/L | 0.02 g/L | – | Interfacial tension (IFT) between water and hydrocarbons of different chain lengths, change on addition of wettability modifier ([1]; hydrocarbons of different chain lengths): decreases significantly; Contact angle ([3]; 25° C., brine 10,000 ppm + 1 g/l S1, time 0 min): 6 °; Contact angle ([3]; 25° C., brine 10,000 ppm + 1 g/l S1, time 30 min): 13 °; Contact angle ([3]; 25° C., brine 10,000 ppm + 1 g/l S1, time 45 min): 14 °; Contact angle ([3]; 25° C., brine 10,000 ppm + 1 g/l S1, time 60 min): 17 °; Contact angle ([3]; 25° C., brine 10,000 ppm + 1 g/l S1, time 90 min): 22 °; Contact angle ([3]; 25° C., brine 10,000 ppm + 1 g/l S1, time 180 min): beginning; Contact angle ([3]; 25° C., brine 100,000 ppm + 1 g/l S1, time 0 min): 7 °; Contact angle ([3]; 25° C., brine 100,000 ppm + 1 g/l S1, time 30 min): 26 °; Contact angle ([3]; 25° C., brine 100,000 ppm + 1 g/l S1, time 45 min): 74 °; Contact angle ([3]; 25° C., brine 100,000 ppm + 1 g/l S1, time 60 min): oil already detached; Time of contact after which oil is detached from the surface ([3]; 60° C.): 2 min; Contact angle ([3]; 60° C., brine 10,000 ppm + 1 g/l S1, time 60 min): beginning; Contact angle ([3]; 60° C., brine 100,000 ppm + 1 g/l S1, time 0 min): oil already
3 | C16/18-alcohol+80 EO | – | – | – | – | – | – | – | – | – | – | – | – | – | – | – | – | 87 °C | –
4 | C13-alcohol+20 EO | – | – | – | – | – | – | – | – | – | – | – | – | – | – | – | – | 86 °C | –
